Results: ChEMBL document CHEMBL5380790 (J Med Chem, 2023)
Converted amounts (≈) assume the structure as drawn. The source made the active and inactive calls. The calls are words filed in the database; no cut-off is given here.

Key:
[1] = biological target: hERG (KCNH2) potassium channel (Homo sapiens, UniProt Q12809); experiment: Inhibition of human ERG potassium channel transfected in HEK293 cells at holding potential -80 mV at 10 uM and measured for 5 mins by whole cell patch clamp assay; format: toxicity, cell-based; conditions: HEK293 cells transfected with hERG
hERG (KCNH2) potassium channel, sequence (Q12809 whole entry): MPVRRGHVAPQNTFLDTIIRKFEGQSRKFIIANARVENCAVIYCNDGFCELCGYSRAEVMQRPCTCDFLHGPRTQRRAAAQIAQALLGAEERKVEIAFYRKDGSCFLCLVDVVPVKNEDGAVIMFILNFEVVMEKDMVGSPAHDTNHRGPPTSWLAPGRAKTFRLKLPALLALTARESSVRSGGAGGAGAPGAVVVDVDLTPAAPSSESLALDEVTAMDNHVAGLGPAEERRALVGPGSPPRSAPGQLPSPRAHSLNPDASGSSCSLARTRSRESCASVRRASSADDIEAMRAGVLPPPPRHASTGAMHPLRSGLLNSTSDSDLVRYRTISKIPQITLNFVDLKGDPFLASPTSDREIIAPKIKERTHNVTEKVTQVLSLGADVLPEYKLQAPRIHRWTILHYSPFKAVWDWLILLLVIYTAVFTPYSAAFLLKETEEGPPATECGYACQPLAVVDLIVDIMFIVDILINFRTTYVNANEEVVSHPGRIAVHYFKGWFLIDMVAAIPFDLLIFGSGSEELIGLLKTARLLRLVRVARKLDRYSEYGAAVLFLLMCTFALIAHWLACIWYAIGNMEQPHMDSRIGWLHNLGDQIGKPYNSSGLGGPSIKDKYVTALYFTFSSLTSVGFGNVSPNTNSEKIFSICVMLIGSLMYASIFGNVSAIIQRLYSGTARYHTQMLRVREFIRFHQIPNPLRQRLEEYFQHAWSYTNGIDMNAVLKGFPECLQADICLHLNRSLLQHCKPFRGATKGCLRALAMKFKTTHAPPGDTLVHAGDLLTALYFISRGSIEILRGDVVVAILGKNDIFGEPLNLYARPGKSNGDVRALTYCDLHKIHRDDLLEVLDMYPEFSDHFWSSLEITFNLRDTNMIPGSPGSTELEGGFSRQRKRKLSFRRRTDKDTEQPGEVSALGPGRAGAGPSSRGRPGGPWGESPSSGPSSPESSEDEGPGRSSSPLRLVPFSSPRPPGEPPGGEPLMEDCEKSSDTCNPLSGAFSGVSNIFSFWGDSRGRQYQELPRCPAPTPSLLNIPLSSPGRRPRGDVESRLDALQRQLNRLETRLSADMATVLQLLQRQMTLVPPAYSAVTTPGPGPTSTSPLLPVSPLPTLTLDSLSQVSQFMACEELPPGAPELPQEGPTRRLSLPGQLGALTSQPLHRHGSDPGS

[2] = Solubility of compound in FaSSIF at pH 6.5; format: physicochemical
[3] = Dissociation constant, pKa of the compound; format: physicochemical
[4] = Efflux ratio of apparent permeability from basolateral to apical side over apical to basolateral side in human Caco-2 cells at 1 uM and measured after 2 hrs by LC-MS/MS analysis; format: ADME, cell-based
[5] = biological target: Mast/stem cell growth factor receptor Kit (Homo sapiens, UniProt P10721, DELTA560/V654A); format: cell-based, GIST-430/654
Mast/stem cell growth factor receptor Kit (Homo sapiens, UniProt P10721, DELTA560/V654A), sequence (P10721 whole entry, looked up, stated change not applied): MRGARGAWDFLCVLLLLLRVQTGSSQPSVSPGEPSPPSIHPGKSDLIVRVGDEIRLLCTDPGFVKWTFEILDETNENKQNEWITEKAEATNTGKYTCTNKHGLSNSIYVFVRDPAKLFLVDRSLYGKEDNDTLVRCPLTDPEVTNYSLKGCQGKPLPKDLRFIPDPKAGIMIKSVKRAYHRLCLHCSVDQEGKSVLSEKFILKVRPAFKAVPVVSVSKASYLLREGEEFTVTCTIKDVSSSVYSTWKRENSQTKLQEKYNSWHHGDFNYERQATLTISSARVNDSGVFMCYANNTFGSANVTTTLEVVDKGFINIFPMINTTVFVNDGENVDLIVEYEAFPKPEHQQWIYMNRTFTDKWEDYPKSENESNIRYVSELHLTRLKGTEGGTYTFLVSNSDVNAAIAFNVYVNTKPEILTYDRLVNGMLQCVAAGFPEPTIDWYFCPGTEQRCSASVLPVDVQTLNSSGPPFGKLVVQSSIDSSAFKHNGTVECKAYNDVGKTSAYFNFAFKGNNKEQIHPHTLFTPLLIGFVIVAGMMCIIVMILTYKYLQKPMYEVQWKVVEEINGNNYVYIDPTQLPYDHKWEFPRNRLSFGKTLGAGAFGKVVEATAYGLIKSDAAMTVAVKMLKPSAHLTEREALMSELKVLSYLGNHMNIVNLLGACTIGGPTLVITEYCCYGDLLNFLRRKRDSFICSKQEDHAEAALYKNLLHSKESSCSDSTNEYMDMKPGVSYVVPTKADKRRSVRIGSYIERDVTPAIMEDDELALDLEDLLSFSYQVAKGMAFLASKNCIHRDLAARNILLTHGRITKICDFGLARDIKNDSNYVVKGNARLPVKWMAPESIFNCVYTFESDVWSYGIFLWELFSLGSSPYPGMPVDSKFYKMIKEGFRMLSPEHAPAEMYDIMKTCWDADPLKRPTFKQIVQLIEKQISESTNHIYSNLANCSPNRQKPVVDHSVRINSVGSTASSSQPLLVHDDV

[6] = Metabolic stability in human hepatocytes assessed as intrinsic clearance measured per million cells; format: ADME, cell-based, Hepatocyte; conditions: read-out: CLH
[7] = Apparent passive permeability of compound in human Caco-2 cells at 1 uM and measured after 2 hrs by LC-MS/MS analysis; format: ADME, cell-based
[8] = Octanol-water distribution coefficient, logD of the compound at pH 7.4; format: physicochemical
[9] = Kinetic solubility of compound in PBS buffer at pH 7.4 and measured after 2 hrs by HPLC-UV analysis; format: physicochemical; conditions: read-out: Kinetic_solubility
[10] = Metabolic stability in mouse liver microsomes assessed as intrinsic clearance in presence of NADPH by UPLC analysis; format: ADME, Microsome; conditions: read-out: CLH
[11] = Metabolic stability in human liver microsomes assessed as intrinsic clearance in presence of NADPH by UPLC analysis; format: ADME, Microsome; conditions: read-out: CLH
[12] = Solubility of compound in simulated gastric fluid at pH 1.2; format: physicochemical
[13] = Solubility of compound in FeSSIF at pH 5.5; format: physicochemical
[14] = biological target: Receptor-type tyrosine-protein kinase FLT3 (Homo sapiens) (UniProt P36888); experiment: Inhibition of FLT3 (unknown origin) at 1 uM using 33P-ATP as substrate incubated for 120 mins by radiometric kinase assay
Receptor-type tyrosine-protein kinase FLT3 (Homo sapiens), sequence (P36888 whole entry): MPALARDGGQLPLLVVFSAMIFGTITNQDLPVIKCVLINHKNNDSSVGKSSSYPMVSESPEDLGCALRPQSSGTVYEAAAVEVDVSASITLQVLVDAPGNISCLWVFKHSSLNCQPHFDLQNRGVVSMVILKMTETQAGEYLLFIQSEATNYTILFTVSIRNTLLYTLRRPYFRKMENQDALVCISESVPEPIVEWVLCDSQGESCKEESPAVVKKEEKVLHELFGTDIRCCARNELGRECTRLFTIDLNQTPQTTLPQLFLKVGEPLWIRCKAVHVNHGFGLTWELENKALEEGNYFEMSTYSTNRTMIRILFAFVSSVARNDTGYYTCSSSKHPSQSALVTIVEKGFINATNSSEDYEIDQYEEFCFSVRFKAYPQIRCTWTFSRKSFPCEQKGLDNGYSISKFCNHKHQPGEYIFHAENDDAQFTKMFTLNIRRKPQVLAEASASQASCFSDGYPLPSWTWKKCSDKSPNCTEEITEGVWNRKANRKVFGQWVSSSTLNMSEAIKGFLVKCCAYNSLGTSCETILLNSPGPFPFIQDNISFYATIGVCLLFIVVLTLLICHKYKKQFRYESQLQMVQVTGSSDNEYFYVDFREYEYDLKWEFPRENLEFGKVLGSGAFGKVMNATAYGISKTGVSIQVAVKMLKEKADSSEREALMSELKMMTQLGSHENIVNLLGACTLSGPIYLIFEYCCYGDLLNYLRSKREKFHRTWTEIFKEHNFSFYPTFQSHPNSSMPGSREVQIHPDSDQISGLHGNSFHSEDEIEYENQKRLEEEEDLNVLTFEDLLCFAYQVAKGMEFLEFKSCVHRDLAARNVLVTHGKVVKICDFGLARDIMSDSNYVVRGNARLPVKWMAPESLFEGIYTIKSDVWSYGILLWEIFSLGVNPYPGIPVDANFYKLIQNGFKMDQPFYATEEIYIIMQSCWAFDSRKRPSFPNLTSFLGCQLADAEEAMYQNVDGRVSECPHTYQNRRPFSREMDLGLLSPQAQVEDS

[15] = biological target: Mast/stem cell growth factor receptor Kit (Homo sapiens, UniProt P10721, V654A); experiment: Inhibition of recombinant human KIT V654A mutant using polyGT and ATP as substrate preincubated for 20 mins followed by substrate addition and measured after 240 mins by FRET assay
Mast/stem cell growth factor receptor Kit (Homo sapiens, UniProt P10721, V654A), sequence (P10721 26-976 V654A limits assumed): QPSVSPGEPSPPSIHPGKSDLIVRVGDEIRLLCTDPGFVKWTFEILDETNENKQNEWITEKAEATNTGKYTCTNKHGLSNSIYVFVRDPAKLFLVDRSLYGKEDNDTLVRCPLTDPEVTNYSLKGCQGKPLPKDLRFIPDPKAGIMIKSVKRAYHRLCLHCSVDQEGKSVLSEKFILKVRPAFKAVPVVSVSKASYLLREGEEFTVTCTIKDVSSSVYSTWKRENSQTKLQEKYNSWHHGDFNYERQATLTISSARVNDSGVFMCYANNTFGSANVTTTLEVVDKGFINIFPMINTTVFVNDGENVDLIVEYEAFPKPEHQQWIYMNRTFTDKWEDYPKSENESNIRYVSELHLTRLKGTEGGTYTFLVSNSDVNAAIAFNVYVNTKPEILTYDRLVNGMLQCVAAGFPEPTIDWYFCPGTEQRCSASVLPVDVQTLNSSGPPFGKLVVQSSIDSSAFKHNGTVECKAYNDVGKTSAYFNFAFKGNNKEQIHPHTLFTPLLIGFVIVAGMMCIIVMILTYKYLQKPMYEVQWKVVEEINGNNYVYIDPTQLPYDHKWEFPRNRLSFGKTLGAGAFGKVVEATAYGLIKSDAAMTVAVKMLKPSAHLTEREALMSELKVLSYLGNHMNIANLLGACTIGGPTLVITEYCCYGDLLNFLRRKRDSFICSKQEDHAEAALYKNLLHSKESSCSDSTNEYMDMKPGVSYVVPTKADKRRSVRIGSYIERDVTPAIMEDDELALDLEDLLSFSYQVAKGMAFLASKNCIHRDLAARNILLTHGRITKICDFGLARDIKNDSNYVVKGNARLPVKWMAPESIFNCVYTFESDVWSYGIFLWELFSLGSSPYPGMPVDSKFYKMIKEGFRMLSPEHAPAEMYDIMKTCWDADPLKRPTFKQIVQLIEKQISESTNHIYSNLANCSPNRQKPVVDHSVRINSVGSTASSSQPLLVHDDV

`Cn1cc(-c2ccc(CNc3cc(-c4cnc5cc(OCCCN6CCC(C)(F)CC6)ccn45)ncn3)cc2)cn1` gave an inhibition at 5 min, 10 µM [1] of -4%, a solubility [2] of 2 µg/mL (≈ 3.61 µM) and a pKa [3] of 8.3. For the same compound, the efflux ratio at 2 h, 1 µM [4] was 1.3, the IC50 [5] was 73 nM and the hepatocyte CLint [6] was 10 µL/min/1e6 cells. For the same compound, the Papp at 2 h, 1 µM [7] was 1.8 ×10⁻⁶ cm/s and the logD [8] was 4.3.
In the case of `c1ccn2c(-c3cc(NCc4ccc(N5CCCC5)nc4)ncn3)cnc2c1`, the solubility kinetic at 2 h [9] is reported as < 3 µM, the microsomal CLint [10] is reported as > 75 µL/min/mg and the IC50 [5] is reported as 429 nM. It also gave a microsomal CLint [11] of 10 µL/min/mg.
For `COCCOc1ccn2c(-c3cc(NCc4ccc(-c5cnn(C)c5)cc4)ncn3)cnc2c1`, the inhibition at 5 min, 10 µM [1] was 1%, the solubility [12] was 890 µg/mL (≈ 1950 µM) and the solubility kinetic at 2 h [9] was < 2 µM. The microsomal CLint [10] was > 75 µL/min/mg, the solubility [2] was 2 µg/mL (≈ 4.39 µM) and the solubility [13] was 13 µg/mL (≈ 28.5 µM). It also gave an efflux ratio at 2 h, 1 µM [4] of 0.9, an IC50 [5] of 48 nM and a hepatocyte CLint [6] of 18 µL/min/1e6 cells. It also gave a Papp at 2 h, 1 µM [7] of 12 ×10⁻⁶ cm/s, a logD [8] of 3.8 and a microsomal CLint [11] of 10 µL/min/mg. For the same compound, the inhibition [14] was “Active”.
For `COc1ccn2c(-c3cc(NCc4ccc(-c5ccccc5)cc4)ncn3)cnc2c1`, the solubility kinetic at 2 h [9] was < 2 µM, the microsomal CLint [10] was < 10 µL/min/mg and the IC50 [5] was 160 nM. The microsomal CLint [11] was 10 µL/min/mg and the IC50 [15] was 4.6 nM.
For `c1ccn2c(-c3nccc(NCC4CCN(C5CCCC5)CC4)n3)cnc2c1`, the microsomal CLint [10] was > 75 µL/min/mg, the microsomal CLint [11] was 10 µL/min/mg and the IC50 [15] was > 10000 nM.
With `c1ccc2ncc(CNc3cncc(-c4cnc5ccccn45)c3)cc2c1` the microsomal CLint [10] was 10 µL/min/mg, the microsomal CLint [11] was 10 µL/min/mg and the IC50 [15] was > 10000 nM.
For `CN1CCN(CCOc2ccn3c(-c4cncc(NCc5ccc(N6CCCC6)nc5)c4)cnc3c2)CC1`, the solubility kinetic at 2 h [9] was 100 µM (≈ 51.3 µg/mL), the microsomal CLint [10] was > 75 µL/min/mg and the IC50 [5] was 290 nM. It also gave a microsomal CLint [11] of 10 µL/min/mg and an IC50 [15] of 11 nM.
For `Cn1cc(-c2ccc(CNc3cc(-c4cnc5cc(OCCCNC6COC6)ccn45)ncn3)cc2)cn1`, the inhibition at 5 min, 10 µM [1] was -19%, the solubility [2] was 16 µg/mL (≈ 31.3 µM) and the pKa [3] was 7.3. For the same compound, the efflux ratio at 2 h, 1 µM [4] was 15, the IC50 [5] was 56 nM and the hepatocyte CLint [6] was 10 µL/min/1e6 cells. The Papp at 2 h, 1 µM [7] was 9.5 ×10⁻⁶ cm/s and the logD [8] was 1.5.
For `CN1CC(COc2ccn3c(-c4cc(NCc5ccc(-c6cnn(C)c6)cc5)ncn4)cnc3c2)C1`, the inhibition at 5 min, 10 µM [1] was -59%, the solubility [2] was 97 µg/mL (≈ 202 µM) and the pKa [3] was 9.5. For the same compound, the efflux ratio at 2 h, 1 µM [4] was 57, the IC50 [5] was 61 nM and the hepatocyte CLint [6] was 4 µL/min/1e6 cells. The Papp at 2 h, 1 µM [7] was 5.7 ×10⁻⁶ cm/s and the logD [8] was 1.9.
With `CN(Cc1ccc(N2CCCC2)nc1)c1cncc(-c2cnc3ccccn23)c1` the solubility kinetic at 2 h [9] was 8 µM (≈ 3.08 µg/mL) and the IC50 [15] was 240 nM.
In the case of `COCCOc1ccn2c(-c3cncc(NCc4ccc(N5CCCC5)nc4)c3)cnc2c1`, the solubility kinetic at 2 h [9] is reported as 9 µM (≈ 4 µg/mL), the microsomal CLint [10] is reported as > 75 µL/min/mg and the IC50 [5] is reported as 110 nM. The microsomal CLint [11] was > 75 µL/min/mg and the IC50 [15] was 12 nM.
For `c1ccc(-c2ccc(CNc3ccnc(-c4cnc5ccccn45)n3)cc2)cc1`, the solubility kinetic at 2 h [9] was < 3 µM, the microsomal CLint [10] was 10 µL/min/mg and the IC50 [5] was 340 nM. For the same compound, the microsomal CLint [11] was 10 µL/min/mg and the IC50 [15] was 15 nM.
In the case of `c1ccn2c(-c3cncc(NCc4ccc(N5CCCC5)nc4)c3)cnc2c1`, the inhibition at 5 min, 10 µM [1] is reported as 90%, the solubility kinetic at 2 h [9] is reported as 101 µM (≈ 37.4 µg/mL) and the microsomal CLint [10] is reported as > 75 µL/min/mg. For the same compound, the IC50 [5] was 720 nM, the microsomal CLint [11] was > 75 µL/min/mg and the IC50 [15] was 12 nM.
